Assay [1] has as its system Glioblastoma cell line U87 cells. In words: MTT cell viability assay, glioblastoma cells. Particulars: U87 glioblastoma cells, MTT after three days. It is filed as cell-based. The procedure:
(§1) Different concentration of compounds were added to the cells. Three days later, a MTT assay (Sigma) was performed to monitor cell viability.
(§2) In this example, samples of glioblastoma cells (U87) and astrocyte cells (non-cancer control) were exposed various disclosed compounds to determine the effectiveness of the compounds for inhibiting cell growth.

Assay [2] has as its system Immortalized human astrocytes. Description: MTT cell viability assay, astrocytes (non-cancer control). Type of assay: cell-based. Particulars: immortalized human astrocytes, MTT after three days. The procedure: as §1, §2
(In general: Tetrazolium assays rely on reduction of a dye to a coloured formazan, in cell work by metabolically active cells.)

This is an account of results in patent US20220213055A1, “SUBSTITUTED (PIPERIDIN-1-YL)ARYL ANALOGUES FOR MODULATING AVIL ACTIVITY” (University of Virginia Patent Foundation, priority 2019, published 2022).

For orientation: IC50 means the point on the concentration scale where inhibition reaches its midpoint.

Like-named read-outs stand apart in the source and are kept apart here.

Take `Nc1nccc(N2CCCCC2)n1` [JDDUVA12, 4-(Piperidin-1-yl)pyrimidin-2-amine]: the IC50 in assay [1] (Homo sapiens, U-87 MG, 72 h) was over 80 µM; in assay [2] (Homo sapiens, Astrocyte, 72 h), over 80 µM.
In assay [1] (Homo sapiens, U-87 MG, 72 h), `COC(=O)C1CCCN(c2ccnc(N)n2)C1` (centres unmarked) [JDDUVA16] gave a half-maximal inhibitory concentration (IC50) of over 80 µM.
Molecule `Nc1nccc(N2CCCC(CO)C2)n1` (centres unmarked) [JDDUVA18, (1-(2-Aminopyrimidin-4-yl)piperidin-3-yl)methanol] displayed an IC50 in assay [1] (Homo sapiens, U-87 MG, 72 h) of over 80 µM.
Turning to `COC(=O)C1(CCCc2ccccc2)CCCN(c2ccnc(N)n2)C1` (centres unmarked) [JDDUVA20], the IC50 was about 10.9 µM in assay [1] (Homo sapiens, U-87 MG, 72 h) and 70 µM in assay [2] (Homo sapiens, Astrocyte, 72 h).
As to `Nc1nccc(N2CCCC(CO)(CCCc3ccccc3)C2)n1` (centres unmarked) [JDDUVA28], the IC50 in assay [1] is about 12.2 µM; in assay [2] (read-out: IC50 (astrocyte)), over 80 µM.
The like results for `Nc1nccc(N2CCCC(CO)(CCCc3ccccc3)C2)n1` (centres unmarked) [JDDUVA38] were, in that order, about 11 µM and 56 µM.
`Cc1nc(N)nc(N2CCC(CO)(CCCc3ccccc3)CC2)c1C` [JDDUVA43, (1-(2-Amino-5,6-dimethylpyrimidin-4-yl)-4-(3-phenylpropyl)piperidin-4-yl)methanol]: the IC50 in assay [2] (Homo sapiens, Astrocyte, 72 h) worked out at 47 µM; in assay [2] (read-out: IC50 (astrocyte)) it was 60 µM.
Consider `OCC1(CCCc2ccccc2)CCN(c2cc(C(F)(F)F)ncn2)CC1` [JDDUVA47, (4-(3-Phenylpropyl)-1-(6-(trifluoromethyl)pyrimidin-4-yl)piperidin-4-yl)methanol], for which the half-inhibitory concentration (IC50) was 13 µM in assay [1] (Homo sapiens, U-87 MG, 72 h) and over 80 µM in assay [2] (Homo sapiens, Astrocyte, 72 h).
As for `Cc1c(O)ncnc1N1CCC(CO)(CCCc2ccccc2)CC1` [JDDUVA48, 6-(4-(Hydroxymethyl)-4-(3-phenylpropyl)piperidin-1-yl)-5-methylpyrimidin-4-ol], the IC50 in assay [1] (Homo sapiens, U-87 MG, 72 h) worked out at 14.1 µM; in assay [2] (Homo sapiens, Astrocyte, 72 h), 7.32 µM.
With `Nc1nccc(N2CCC(CO)(CCCc3ccccc3)CC2)n1` [JDDUVA49, (1-(2-Aminopyrimidin-4-yl)-4-(3-phenylpropyl)piperidin-4-yl)methanol], the IC50 in assay [1] (Homo sapiens, U-87 MG, 72 h) was 3 µM; in assay [2] (Homo sapiens, Astrocyte, 72 h), over 80 µM.
For `Cc1c(Cl)ncnc1N1CCC(CO)(CCCc2ccccc2)CC1` [JDDUVA50, (1-(6-Chloro-5-methylpyrimidin-4-yl)-4-(3-phenylpropyl)piperidin-4-yl)methanol] the same measures were 21 µM and over 80 µM.
With `Nc1ncnc(N2CCC(CO)(CCCc3ccccc3)CC2)c1N` [JDDUVA51, (1-(5,6-Diaminopyrimidin-4-yl)-4-(3-phenylpropyl)piperidin-4-yl)methanol], the IC50 in assay [1] (Homo sapiens, U-87 MG, 72 h) is 12 µM; in assay [2] (Homo sapiens, Astrocyte, 72 h), over 80 µM.
Consider `COc1nc(OC)nc(N2CCC(CO)(CCCc3ccccc3)CC2)n1` [JDDUVA52, (1-(4,6-Dimethoxy-1,3,5-triazin-2-yl)-4-(3-phenylpropyl)piperidin-4-yl)methanol], for which the IC50 is 41 µM in assay [1] (Homo sapiens, U-87 MG, 72 h) and over 80 µM in assay [2] (Homo sapiens, Astrocyte, 72 h).
As to `Cc1nccnc1N1CCC(CO)(CCCc2ccccc2)CC1` [JDDUVA53, (1-(3-Methylpyrazin-2-yl)-4-(3-phenylpropyl)piperidin-4-yl)methanol], the IC50 in assay [1] (Homo sapiens, U-87 MG, 72 h) was 30 µM; in assay [2] (Homo sapiens, Astrocyte, 72 h), over 80 µM.
For `Nc1cncc(N2CCC(CO)(CCCc3ccccc3)CC2)n1` [JDDUVA55] the same measures were 16 µM and over 80 µM.
Regarding `CC1CCN(c2ccnc(N)n2)CC1` [JDDUVA59, 4-(4-Methylpiperidin-1-yl)pyrimidin-2-amine], the concentration for half-maximal inhibition (IC50) was 72 µM in assay [1] (Homo sapiens, U-87 MG, 72 h) and over 80 µM in assay [2] (Homo sapiens, Astrocyte, 72 h).
As for `OCC1(CCCc2ccccc2)CCN(c2cc(Cl)ncn2)CC1` [JDDUVA60, (1-(6-Chloropyrimidin-4-yl)-4-(3-phenylpropyl)piperidin-4-yl)methanol], the IC50 in assay [2] (Homo sapiens, Astrocyte, 72 h) was over 80 µM.
On to `Nc1nccc(N2CCCCC2CO)n1` (centres unmarked) [JDDUVA61, (1-(2-Aminopyrimidin-4-yl)piperidin-2-yl)methanol], for which the IC50 in assay [1] (Homo sapiens, U-87 MG, 72 h) is over 80 µM; in assay [2] (Homo sapiens, Astrocyte, 72 h), over 80 µM.
Regarding `Nc1nccc(N2CCC(c3ccccc3)CC2)n1` [JDDUVA63, 4-(4-Phenylpiperidin-1-yl)pyrimidin-2-amine], the IC50 in assay [1] (Homo sapiens, U-87 MG, 72 h) was 16 µM; in assay [2] (Homo sapiens, Astrocyte, 72 h), over 80 µM.
Regarding `COc1c(Cl)ncnc1N1CCC(CO)(CCCc2ccccc2)CC1` [JDDUVA67, (1-(6-Chloro-5-methoxypyrimidin-4-yl)-4-(3-phenylpropyl)piperidin-4-yl)methanol], the IC50 is about 2.5 µM in assay [1] (Homo sapiens, U-87 MG, 72 h) and about 6 µM in assay [2] (Homo sapiens, Astrocyte, 72 h).
For `CCc1ncnc(N2CCC(CO)(CCCc3ccccc3)CC2)c1F` [JDDUVA68, (1-(6-Ethyl-5-fluoropyrimidin-4-yl)-4-(3-phenylpropyl)piperidin-4-yl)methanol] the same measures were 3.6 µM and 12.5 µM.
For `Nc1ccnc(N2CCC(CO)(CCCc3ccccc3)CC2)n1` [JDDUVA69, (1-(4-Aminopyrimidin-2-yl)-4-(3-phenylpropyl)piperidin-4-yl)methanol] the same measures were 13.6 µM and over 80 µM.
The like results for `Nc1nccc(N2CCc3ccccc3C2)n1` [JDDUVA71, 4-(3,4-Dihydroisoquinolin-2(1H)-yl)pyrimidin-2-amine] were, in that order, over 80 µM and over 80 µM.
In the case of `CCOC(=O)C1(CCCc2ccccc2)CCN(C(=O)OC(C)(C)C)CC1` [JDDUVA76], the IC50 in assay [1] (Homo sapiens, U-87 MG, 72 h) is about 30 µM; in assay [2] (Homo sapiens, Astrocyte, 72 h) it was about 60 µM.
On to `Nc1nc(N)nc(N2CCC(CO)(CCCc3ccccc3)CC2)n1` [JDDUVA78, (1-(4,6-Diamino-1,3,5-triazin-2-yl)-4-(3-phenylpropyl)piperidin-4-yl)methanol], for which the IC50 in assay [1] (Homo sapiens, U-87 MG, 72 h) is 12 µM; in assay [2] (Homo sapiens, Astrocyte, 72 h) it was about 40 µM.
The like results for `Clc1cc(N2CCc3ccccc3C2)ncn1` [JDDUVA81] were, in that order, over 80 µM and over 80 µM.
As to `Cc1ncnc(N2CCC(CO)(CCCc3ccccc3)CC2)c1C` [JDDUVA96, (1-(5,6-Dimethylpyrimidin-4-yl)-4-(3-phenylpropyl)piperidin-4-yl)methanol], the 50% inhibitory concentration (IC50) in assay [1] (Homo sapiens, U-87 MG, 72 h) is about 4 µM; in assay [2] (Homo sapiens, Astrocyte, 72 h), about 8 µM.
For `COC(=O)C1CCCNC1` (centres unmarked) [PLH1155] the same measures were over 80 µM and over 80 µM.
For `COC(=O)C1CCCN(C(=O)OC(C)(C)C)C1` (centres unmarked) [PLH1190] the same measures were over 80 µM and over 80 µM.
For `COC(=O)C1(CCCc2ccccc2)CCCN(C(=O)OC(C)(C)C)C1` (centres unmarked) [PLH1195] the same measures were about 22.5 µM and 65 µM.
Regarding `CC(C)(C)OC(=O)N1CCCC(CO)(CCCc2ccccc2)C1` (centres unmarked) [PLH1196], the IC50 was about 30 µM in assay [1] (Homo sapiens, U-87 MG, 72 h) and over 80 µM in assay [2] (Homo sapiens, Astrocyte, 72 h).
On to `O=C(O)C1(CCCc2ccccc2)CCCNC1` (centres unmarked) [PLH1197], for which the IC50 in assay [1] (Homo sapiens, U-87 MG, 72 h) was about 80 µM; in assay [2] (Homo sapiens, Astrocyte, 72 h), over 80 µM.
With `COC(=O)C1(CCCc2ccccc2)CCCN(c2ccnc(N)n2)C1` (centres unmarked) [PLH1209, Methyl 1-(2-aminopyrimidin-4-yl)-3-(3-phenylpropyl)piperidine-3-carboxylate], the IC50 in assay [1] came to 6 µM; in assay [2] (read-out: IC50 (astrocyte)), 76 µM.
Turning to `OCC1(CCCc2ccccc2)CCCNC1` (centres unmarked) [PLH1211], the IC50 in assay [1] (Homo sapiens, U-87 MG, 72 h) is over 80 µM; in assay [2] (Homo sapiens, Astrocyte, 72 h) it was over 80 µM.
In assay [1] (Homo sapiens, U-87 MG, 72 h), `Nc1ncnc(N2CCCC(CO)(CCCc3ccccc3)C2)n1` (centres unmarked) [PLH1239, (1-(4-Amino-1,3,5-triazin-2-yl)-3-(3-phenylpropyl)piperidin-3-yl)methanol] gave an IC50 of over 80 µM.
As to `Nc1nccc(N2CCCC(CCCc3ccccc3)(COCc3ccccc3)C2)n1` (centres unmarked) [PLH1253, 4-(3-((Benzyloxy)methyl)-3-(3-phenylpropyl)piperidin-1-yl)pyrimidin-2-amine], the IC50 in assay [1] (Homo sapiens, U-87 MG, 72 h) was about 1.7 µM; in assay [1] it was about 3.4 µM.
